This passage reports EC50, EC90 and IC50 results from publication doi:10.1101/2022.10.06.511132v1, “Development of Enterovirus anti-viral agents that target the viral 2C protein” (biorxiv, 2022).

Assay [1] concerns EV-A71. Description: microbe, parasite or virus in culture. Also on record: NIAID secondary assay, neutral red cytopathic effect reduction. Conditions: Enterovirus A, EV71 / EVA71, read-out: EC50 µM, EV-71 neutral red.
Assay [2] has as its system EV-68 (EV-D68). Briefly: microbe, parasite or virus in culture. Set-up: NIAID secondary assay, neutral red cytopathic effect reduction. Conditions: Enterovirus D, read-out: EC50 µM, EV-68 neutral red.
Assay [3] has as its system EV-A71. Description: microbe, parasite or virus in culture. Set-up: NIAID secondary assay, virus yield reduction, visual titre. Conditions: Enterovirus A, EV71 / EVA71, read-out: EC90 µM, EV-71 VYR.
In assay [4] the test system is EV-68 (EV-D68). Briefly: microbe, parasite or virus in culture. Also on record: NIAID secondary assay, virus yield reduction, visual titre. Conditions: Enterovirus D, read-out: EC90 µM, EV-68 VYR.
Another assay addresses T1, EV-A71 Δ2C^116-329 (Enterovirus A71, UniProt B9VUU3).
T1 construct: N-terminally truncated mature protein 2C residues 116-329, cut from the genome polyprotein; N-terminal MBP tag and C-terminal His6 (kept, MBP-Δ2C-(His)6); codon-optimised synthetic gene in pMALc5x, E. coli Rosetta 2(DE3) pLysS; active as hexamer
Description: malachite green ATPase assay. Format: biochemical.

By EC50 is commonly meant the concentration giving half of the maximal effect. Broadly, the EC90 is the point of the concentration-response curve where the effect stands at 90%. Usually IC50 stands for the concentration at which inhibition is half-maximal. The low end stands for greater potency, the high end for weaker potency.

T1 sequence (B9VUU3 1227-1440, stated change not applied): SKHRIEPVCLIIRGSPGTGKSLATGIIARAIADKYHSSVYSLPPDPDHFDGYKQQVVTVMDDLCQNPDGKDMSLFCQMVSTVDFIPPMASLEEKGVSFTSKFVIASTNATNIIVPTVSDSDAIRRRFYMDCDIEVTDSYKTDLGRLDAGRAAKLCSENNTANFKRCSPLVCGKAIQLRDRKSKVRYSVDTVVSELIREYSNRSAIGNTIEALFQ

For `Cc1ccc2[nH]c(-c3ccc(NC(=O)c4cccs4)cc3)nc2c1` [SJW-2C-227], the EC50 in the assay with EV-A71 [1] was 1.7 µM; with EV-68 (EV-D68) [2], 0.52 µM. Moreover, the EC90 with EV-A71 [3] worked out at 3.2 µM; in the assay on EV-68 (EV-D68) [4] it was 0.59 µM. This compound registered a half-maximal inhibitory concentration (IC50) on EV-A71 Δ2C^116-329 of 23.4 µM.

`Cc1ccc2[nH]c(-c3ccc(NC(=O)c4ccc(C)c(C)c4)cc3)nc2c1` [SJW-2C-234] registered an IC50 against EV-A71 Δ2C^116-329 of 55 µM.

Compound `O=C(Nc1ccc(-c2nc3cc4ccccc4cc3[nH]2)cc1)c1cccc(Br)c1` [SJW-2C-239] had an IC50 on EV-A71 Δ2C^116-329 of 33.1 µM.
